In the supplement of paper PMC4862054:

System: CAL-148
Assay: normalised response (% of control), CellTiter-Glo; higher = more viable cells (100 = DMSO, 0 = benzethonium chloride kill control)
Details: incubation time: 72 h
How it was run: (§1)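 Breast cancer cell lines, seeded at 20 µl suspension per well, were incubated for 72 h in 384-well plates containing compound at 5 concentrations. These concentrations rose in 10-fold steps over a 10,000-fold range set for each compound. CellTox Green fluorescence (485/520 nm) was read, then CellTiter-Glo luminescence after 10 min at room temperature, and each plate was normalised to 0.1 % DMSO (100) and a positive kill control (0). Values are normalised signals, each at one concentration.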

Compound	normalised response
CC(C)(C)Cn1c(N)nc2ccc(-c3[nH]c(C(C)(C)C)nc3-c3ccc(F)cc3)nc21 (100 nM)	100%
CC[C@H](CC#N)OC(=O)N[C@@H](C)c1cccc(NC(=O)Nc2ccc(-c3cnco3)c(OC)c2)c1 [AVN944] (100 nM)	94.8%
CC(C)C[C@H](NC(=O)[C@H](CCc1ccccc1)NC(=O)CN1CCOCC1)C(=O)N[C@@H](Cc1ccccc1)C(=O)N[C@@H](CC(C)C)C(=O)[C@@]1(C)CO1 [Carfilzomib] (10 nM)	104%
CCc1cnn2c(NCc3ccc[n+]([O-])c3)cc(N3CCCC[C@H]3CCO)nc12 [Dinaciclib] (10 nM)	101%
CC(C)C(=O)Nc1ccc([N+](=O)[O-])c(C(F)(F)F)c1 [Flutamide] (100 nM)	100%
COc1cc2c(Oc3ccc(NC(=O)C4(C(=O)Nc5ccc(F)cc5)CC4)cc3F)ccnc2cc1OCCCN1CCOCC1 [Foretinib] (10 nM)	105%
COc1cc(Nc2ncc(F)c(Nc3ccc4c(n3)N(COP(=O)(O)O)C(=O)C(C)(C)O4)n2)cc(OC)c1OC [Fostamatinib] (25 nM)	88.7%
CC[C@@H]1C(=O)N(C)c2cnc(Nc3ccc(C(=O)N[C@H]4CC[C@H](N5CCN(CC6CC6)CC5)CC4)cc3OC)nc2N1C(C)C [Volasertib] (10 nM)	84.4%

System: MDA-MB-468
Assay: as above
Details: incubation time: 72 h
How it was run: as §1

Compound	normalised response
CC(C)(C)Cn1c(N)nc2ccc(-c3[nH]c(C(C)(C)C)nc3-c3ccc(F)cc3)nc21 (100 nM)	95.8%
CC[C@H](CC#N)OC(=O)N[C@@H](C)c1cccc(NC(=O)Nc2ccc(-c3cnco3)c(OC)c2)c1 [AVN944] (100 nM)	59.9%
CC(C)C[C@H](NC(=O)[C@H](CCc1ccccc1)NC(=O)CN1CCOCC1)C(=O)N[C@@H](Cc1ccccc1)C(=O)N[C@@H](CC(C)C)C(=O)[C@@]1(C)CO1 [Carfilzomib] (10 nM)	0.56%
CCc1cnn2c(NCc3ccc[n+]([O-])c3)cc(N3CCCC[C@H]3CCO)nc12 [Dinaciclib] (10 nM)	90.3%
CC(C)C(=O)Nc1ccc([N+](=O)[O-])c(C(F)(F)F)c1 [Flutamide] (100 nM)	94%
COc1cc2c(Oc3ccc(NC(=O)C4(C(=O)Nc5ccc(F)cc5)CC4)cc3F)ccnc2cc1OCCCN1CCOCC1 [Foretinib] (10 nM)	104%
COc1cc(Nc2ncc(F)c(Nc3ccc4c(n3)N(COP(=O)(O)O)C(=O)C(C)(C)O4)n2)cc(OC)c1OC [Fostamatinib] (25 nM)	94.7%
CC[C@@H]1C(=O)N(C)c2cnc(Nc3ccc(C(=O)N[C@H]4CC[C@H](N5CCN(CC6CC6)CC5)CC4)cc3OC)nc2N1C(C)C [Volasertib] (10 nM)	68.3%

System: MDA-MB-436
Assay: as above
Details: incubation time: 72 h
How it was run: as §1

Compound	normalised response
CC(C)(C)Cn1c(N)nc2ccc(-c3[nH]c(C(C)(C)C)nc3-c3ccc(F)cc3)nc21 (100 nM)	105%
CC[C@H](CC#N)OC(=O)N[C@@H](C)c1cccc(NC(=O)Nc2ccc(-c3cnco3)c(OC)c2)c1 [AVN944] (100 nM)	80.1%
CC(C)C[C@H](NC(=O)[C@H](CCc1ccccc1)NC(=O)CN1CCOCC1)C(=O)N[C@@H](Cc1ccccc1)C(=O)N[C@@H](CC(C)C)C(=O)[C@@]1(C)CO1 [Carfilzomib] (10 nM)	23.4%
CCc1cnn2c(NCc3ccc[n+]([O-])c3)cc(N3CCCC[C@H]3CCO)nc12 [Dinaciclib] (10 nM)	53.5%
CC(C)C(=O)Nc1ccc([N+](=O)[O-])c(C(F)(F)F)c1 [Flutamide] (100 nM)	102%
COc1cc2c(Oc3ccc(NC(=O)C4(C(=O)Nc5ccc(F)cc5)CC4)cc3F)ccnc2cc1OCCCN1CCOCC1 [Foretinib] (10 nM)	104%
COc1cc(Nc2ncc(F)c(Nc3ccc4c(n3)N(COP(=O)(O)O)C(=O)C(C)(C)O4)n2)cc(OC)c1OC [Fostamatinib] (25 nM)	99.7%
CC[C@@H]1C(=O)N(C)c2cnc(Nc3ccc(C(=O)N[C@H]4CC[C@H](N5CCN(CC6CC6)CC5)CC4)cc3OC)nc2N1C(C)C [Volasertib] (10 nM)	59.5%

System: DU-4475
Assay: as above
Details: incubation time: 72 h
How it was run: as §1

Compound	normalised response
CC(C)(C)Cn1c(N)nc2ccc(-c3[nH]c(C(C)(C)C)nc3-c3ccc(F)cc3)nc21 (100 nM)	103%
CC[C@H](CC#N)OC(=O)N[C@@H](C)c1cccc(NC(=O)Nc2ccc(-c3cnco3)c(OC)c2)c1 [AVN944] (100 nM)	97.1%
CC(C)C[C@H](NC(=O)[C@H](CCc1ccccc1)NC(=O)CN1CCOCC1)C(=O)N[C@@H](Cc1ccccc1)C(=O)N[C@@H](CC(C)C)C(=O)[C@@]1(C)CO1 [Carfilzomib] (10 nM)	102%
CCc1cnn2c(NCc3ccc[n+]([O-])c3)cc(N3CCCC[C@H]3CCO)nc12 [Dinaciclib] (10 nM)	89%
CC(C)C(=O)Nc1ccc([N+](=O)[O-])c(C(F)(F)F)c1 [Flutamide] (100 nM)	104%
COc1cc2c(Oc3ccc(NC(=O)C4(C(=O)Nc5ccc(F)cc5)CC4)cc3F)ccnc2cc1OCCCN1CCOCC1 [Foretinib] (10 nM)	103%
COc1cc(Nc2ncc(F)c(Nc3ccc4c(n3)N(COP(=O)(O)O)C(=O)C(C)(C)O4)n2)cc(OC)c1OC [Fostamatinib] (25 nM)	95.6%
CC[C@@H]1C(=O)N(C)c2cnc(Nc3ccc(C(=O)N[C@H]4CC[C@H](N5CCN(CC6CC6)CC5)CC4)cc3OC)nc2N1C(C)C [Volasertib] (10 nM)	100%

System: CAL-85-1
Assay: as above
Details: incubation time: 72 h
How it was run: as §1

Compound	normalised response
CC(C)(C)Cn1c(N)nc2ccc(-c3[nH]c(C(C)(C)C)nc3-c3ccc(F)cc3)nc21 (100 nM)	99.5%
CC[C@H](CC#N)OC(=O)N[C@@H](C)c1cccc(NC(=O)Nc2ccc(-c3cnco3)c(OC)c2)c1 [AVN944] (100 nM)	81.9%
CC(C)C[C@H](NC(=O)[C@H](CCc1ccccc1)NC(=O)CN1CCOCC1)C(=O)N[C@@H](Cc1ccccc1)C(=O)N[C@@H](CC(C)C)C(=O)[C@@]1(C)CO1 [Carfilzomib] (10 nM)	37.6%
CCc1cnn2c(NCc3ccc[n+]([O-])c3)cc(N3CCCC[C@H]3CCO)nc12 [Dinaciclib] (10 nM)	24.4%
